Laboratory results: ChEMBL document CHEMBL4823324, “Discovery of BMS-986318, a Potent Nonbile Acid FXR Agonist for the Treatment of Nonalcoholic Steatohepatitis” (ACS Med Chem Lett, 2021)
pEC50: −log10 of the molar value.

Legend:
[1] = AUC in C57B6 mouse at 2 mg/kg, po administered as solution; assay type: ADME, organism-based; design: dose 2 mg/kg; conditions: in vivo
[2] = Half life in C57B6 mouse at 1 mg/kg, iv; assay type: ADME, organism-based; conditions: in vivo
[3] = Volume of distribution at steady state in C57B6 mouse at 1 mg/kg, iv; assay type: ADME, organism-based; conditions: in vivo, read-out: Vdss
[4] = Half life in C57B6 mouse at 2 mg/kg, po administered as solution; assay type: ADME, organism-based; conditions: in vivo
[5] = target: T1, Glucocorticoid receptor (Homo sapiens, UniProt P04150); assay: Activation of glucocorticoid receptor (unknown origin) by fluorescence polarization based competition assay
T1 sequence (P04150 whole entry): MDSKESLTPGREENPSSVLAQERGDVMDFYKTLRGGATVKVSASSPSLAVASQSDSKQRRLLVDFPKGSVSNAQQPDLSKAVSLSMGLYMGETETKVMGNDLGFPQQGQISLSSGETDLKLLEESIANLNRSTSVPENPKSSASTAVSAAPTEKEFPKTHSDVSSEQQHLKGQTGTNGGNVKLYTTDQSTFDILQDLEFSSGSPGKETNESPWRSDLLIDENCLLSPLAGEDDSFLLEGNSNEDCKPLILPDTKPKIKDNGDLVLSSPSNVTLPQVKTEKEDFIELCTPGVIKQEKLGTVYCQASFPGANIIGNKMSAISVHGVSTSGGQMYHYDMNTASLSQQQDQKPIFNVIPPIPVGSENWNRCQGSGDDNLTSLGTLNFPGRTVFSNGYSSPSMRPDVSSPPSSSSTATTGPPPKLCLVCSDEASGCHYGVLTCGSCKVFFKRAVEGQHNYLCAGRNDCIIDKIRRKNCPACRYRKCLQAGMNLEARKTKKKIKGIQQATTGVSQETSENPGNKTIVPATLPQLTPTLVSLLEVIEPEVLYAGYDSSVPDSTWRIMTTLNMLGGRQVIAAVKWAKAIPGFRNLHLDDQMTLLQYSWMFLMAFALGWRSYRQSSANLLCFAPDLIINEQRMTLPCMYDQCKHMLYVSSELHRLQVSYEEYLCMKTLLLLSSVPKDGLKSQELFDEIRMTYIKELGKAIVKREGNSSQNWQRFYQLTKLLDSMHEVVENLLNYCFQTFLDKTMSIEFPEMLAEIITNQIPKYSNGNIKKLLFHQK

AUC [1]: 6.65 µM·h
half-life [2]: 2.6 h
Vd [3]: 0.56 L/kg
half-life [4]: 2.3 h
pEC50 [5]: < 4.40
Compound: O=C(O)c1cc(C(F)(F)F)c2cc(N3CCC4(C=C(c5c(-c6c(Cl)cncc6Cl)noc5C5CC5)C4)CC3)ccc2n1
